# US20260206761A1, “HETEROARYL-TRIAZOLE COMPOUNDS AS PESTICIDES” (Bayer Aktiengesellschaft, priority 2019, published 2026)
# Experiments:
# Format in all cases: in vivo
# [1] = test system: adult engorged female ticks (Rhipicephalus microplus); assay: Rhipicephalus (Boophilus) microplus injection test; settings: 168 h, egg deposition after 7 days, read-out: activity (efficacy: infertile eggs); for pest or weed control at 4 pg: application rate 4 pg/animal; for pest or weed control at 0.02 mg: application rate 20 μg/animal
# Method in brief: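 Five adult engorged female ticks injected into the abdomen with 1 μL compound solution in DMSO, then held in a climate chamber. Fertile egg deposition assessed after 7 days, unclear eggs kept until hatching (about 42 days); efficacy 100% = all eggs infertile, 0% = all fertile.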
# [2] = test system: adult unfed cat fleas (Ctenocephalides felis); assay: Ctenocephalides felis oral test; settings: 48 h, read-out: activity (mortality)
# Method in brief: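 About 20 adult unfed fleas fed through parafilm on cattle blood containing compound (DMSO stock diluted in blood), blood held at 37 °C and fleas at room temperature. Mortality (%) scored after 2 days.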
# [3] = test system: fall armyworm larvae (Spodoptera frugiperda); assay: Spodoptera frugiperda spray test; settings: 168 h, read-out: activity (mortality)
# Method in brief: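 Compound in acetone/DMF, diluted in water with 1000 ppm alkylarylpolyglycol ether emulsifier, sprayed on maize leaf sections. Dried leaves infested with fall armyworm larvae; % mortality after 7 days (100% = all killed, 0% = none).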
# [4] = test system: cattle ticks (Rhipicephalus microplus) strain Parkhurst, SP-resistant; assay: Rhipicephalus (Boophilus) microplus dip test; settings: 168 h, application rate 100 ppm, egg deposition after 7 days, read-out: activity (efficacy: infertile eggs)
# Procedure: Rhipicephalus (Boophilus) microplus—Din Test
# Test animal: cattle ticks (Rhipicephalus microplus) strain Parkhurst, SP-resistant
# Solvent: dimethyl sulfoxide
# To produce a suitable preparation of active compound, 10 mg of active compound are dissolved in 0.5 mL solvent, and the concentrate is diluted with water to the desired concentration.
# This compound solution is pipetted into tubes. 8-10 engorged, adult, female cattle ticks (Rhipicephalus microplus) are placed in perforated tubes. These tubes are immersed in the aqueous compound solution until the ticks are completely moistened. After the liquid has drained off, the ticks are transferred to a filter paper in a plastic tray and stored in a climate chamber.
# After 7 days egg deposition of fertile eggs is monitored. Eggs where fertility is not visible are stored in a climate chamber till hatching after about 42 days. An efficacy of 100% means all eggs are infertile; 0% means all eggs are fertile.
# [5] = test system: Anopheles funestus strain FUMOZ-R; assay: Anopheles funestus test (ANPHFU surface treatment & contact assay); settings: 24 hours after contact, read-out: efficacy (mortality); for mortality at 4 mg/m2: surface concentration 4 mg/m^2, exposure 30 minutes; for mortality at 20 mg/m2: surface concentration 20 mg/m^2, exposure 30 minutes
# Method in brief: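 Compound dissolved in acetone at 2 mg/ml with 2000 ppm RME, pipetted onto glazed tile; acetone evaporated. Adult FUMOZ-R mosquitoes exposed to dried surface for 30 min. Percent mortality scored 24 h after contact.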
# [6] = test system: adult brown dog ticks (Rhipicephalus sanguineus); assay: Rhipicephalus sanguineus in-vitro contact test, adult brown dog ticks; settings: after 48 hours, read-out: activity (efficacy: ticks dead or moribund); for pest or weed control at 100 g/ha: application rate 1 pg/cm^2 (=100 g/ha); for pest or weed control at 5 µg/cm2, 500 g/ha: application rate 5 μg/cm^2 (=500 g/ha)
# Method in brief: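 Acetone solution (900 ppm giving 5 μg/cm²) coated on inner walls of glass tubes; after drying, 5-10 adult ticks added and held at room temperature 48 h. Ticks then placed on 45-50 °C plate ≤5 min; those unable to climb away scored dead/moribund, efficacy as % affected.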
# [7] = test system: brown planthopper (Nilaparvata lugens); assay: Nilaparvata lugens spray test; settings: 96 h, after 4 days; for mortality at 100 g/ha: application rate 100 g/ha; for mortality at 500 g/ha: application rate 500 g/ha
# Procedure: Nilaparvata lugens—Spray Test
# Solvent: 78.0 parts by weight of acetone • • 1.5 parts by weight of dimethylformamide
# Emulsifier: alkylarylpolyglycol ether
# To produce a suitable preparation of active compound, 1 part by weight of active compound is mixed with the stated amount of solvents and is diluted with water, containing an emulsifier concentration of 1000 ppm, to the desired concentration. Further test concentrations are prepared by dilution with emulsifier containing water.
# Rice plants (Oryza sativa) are sprayed with a preparation of the active ingredient of the desired concentration and the plants are infested with the brown planthopper (Nilaparvata lugens).
# After 4 days mortality in % is determined. 100% means all planthoppers have been killed and 0% means none of the planthoppers have been killed.
# [8] = test system: Culex quinquefasciatus strain P00; assay: Culex quinquefasciatus test (CULXFA surface treatment & contact assay); settings: 24 hours after contact, read-out: efficacy (mortality); for mortality at 4 mg/m2: surface concentration 4 mg/m^2, exposure 30 minutes; for mortality at 20 mg/m2: surface concentration 20 mg/m^2, exposure 30 minutes
# Method in brief: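 Compound in acetone (2 mg/ml) with 2000 ppm rapeseed oil methyl ester, dried onto glazed tile. Adult mosquitoes exposed to the treated surface for 30 min. Percent mortality scored 24 h after contact.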
compound,measurement,setting,value
C[C@H](NC(=O)c1cc(Cl)cc(S(C)(=O)=O)c1)c1nc(C2CC2)nn1-c1ccc(C#N)cn1 [I-4],pest or weed control at 4 pg,[1],100%
same,pest or weed control at 0.02 mg,[1],100%
same,mortality at 100 ppm,[2],100%
same,mortality at 100 g/ha,[3],100%
same,mortality at 500 g/ha,[3],100%
same,pest or weed control at 100 ppm,[4],100%
CC(NC(=O)c1cc(C(F)(F)F)cc(S(C)(=O)=O)c1)c1nc(Cl)nn1-c1ncccn1 (centres unmarked) [I-30],pest or weed control at 4 pg,[1],100%
same,pest or weed control at 0.02 mg,[1],100%
same,mortality at 4 mg/m2,[5],80 to 100%
same,mortality at 20 mg/m2,[5],80 to 100%
same,mortality at 100 ppm,[2],100%
same,pest or weed control at 100 g/ha,[6],100%
same,"pest or weed control at 5 µg/cm2, 500 g/ha",[6],100%
same,mortality at 100 g/ha,[7],100%
C[C@H](NC(=O)c1cc(C#N)cc([S+](C)[O-])c1)c1ncnn1-c1ccc(C#N)cn1 (some centres unmarked) [II-12],pest or weed control at 4 pg,[1],100%
same,pest or weed control at 0.02 mg,[1],100%
same,mortality at 4 mg/m2,[5],80 to 100%
same,mortality at 20 mg/m2,[5],80 to 100%
same,mortality at 500 g/ha,[3],100%
same,mortality at 4 mg/m2,[8],80 to 100%
same,mortality at 20 mg/m2,[8],80 to 100%
same,mortality at 100 g/ha,[7],100%
same,mortality at 500 g/ha,[7],100%
C[C@H](NC(=O)c1cc(C(F)(F)F)cc(S(C)(=O)=O)c1)c1ncnn1-c1ncccn1 [II-13],pest or weed control at 4 pg,[1],100%
same,pest or weed control at 0.02 mg,[1],100%
same,mortality at 4 mg/m2,[5],80 to 100%
same,mortality at 500 g/ha,[3],100%
same,pest or weed control at 100 ppm,[4],100%
same,mortality at 4 mg/m2,[8],80 to 100%
same,mortality at 100 g/ha,[7],100%
same,mortality at 500 g/ha,[7],100%
C[C@H](NC(=O)c1cc(OC(F)(F)F)cc(C2CC2)c1)c1ncnn1-c1ccccn1 [II-22],pest or weed control at 4 pg,[1],100%
same,pest or weed control at 0.02 mg,[1],100%
same,mortality at 100 ppm,[2],100%
same,mortality at 100 g/ha,[3],100%
same,mortality at 500 g/ha,[3],100%
same,mortality at 20 mg/m2,[8],80 to 100%
same,mortality at 500 g/ha,[7],90%
Cc1nc([C@H](C)NC(=O)c2cc(C(F)(F)F)n(C)n2)n(-c2ncccn2)n1 [II-25],pest or weed control at 4 pg,[1],100%
same,pest or weed control at 0.02 mg,[1],100%
same,mortality at 4 mg/m2,[5],80 to 100%
same,mortality at 20 mg/m2,[5],80 to 100%
same,pest or weed control at 100 g/ha,[6],100%
same,"pest or weed control at 5 µg/cm2, 500 g/ha",[6],100%
same,mortality at 4 mg/m2,[8],80 to 100%
same,mortality at 20 mg/m2,[8],80 to 100%
same,mortality at 500 g/ha,[7],90%
C[C@H](NC(=O)c1cc(Cl)cc(S(=O)(=O)C(F)F)c1)c1ncnn1-c1ncccn1 [II-34],pest or weed control at 4 pg,[1],100%
same,pest or weed control at 0.02 mg,[1],100%
same,mortality at 4 mg/m2,[5],80 to 100%
same,mortality at 20 mg/m2,[5],80 to 100%
same,mortality at 100 ppm,[2],100%
same,mortality at 100 g/ha,[3],83%
same,mortality at 500 g/ha,[3],100%
same,pest or weed control at 100 g/ha,[6],100%
same,"pest or weed control at 5 µg/cm2, 500 g/ha",[6],100%
same,mortality at 4 mg/m2,[8],80 to 100%
same,mortality at 20 mg/m2,[8],80 to 100%
same,mortality at 100 g/ha,[7],100%
same,mortality at 500 g/ha,[7],100%
Cc1nc([C@H](C)NC(=O)c2cc(OC(F)(F)F)cc(C3CC3)c2)n(-c2ccc(C#N)cn2)n1 [II-39],pest or weed control at 4 pg,[1],100%
same,pest or weed control at 0.02 mg,[1],100%
same,mortality at 100 ppm,[2],100%
same,mortality at 100 g/ha,[3],100%
same,pest or weed control at 100 ppm,[4],100%
same,pest or weed control at 100 g/ha,[6],100%
same,"pest or weed control at 5 µg/cm2, 500 g/ha",[6],100%
same,mortality at 20 mg/m2,[8],80 to 100%
C[C@H](NC(=O)c1cc(Cl)cc(S(C)(=O)=O)c1)c1ncnn1-c1ncc(OC(F)F)cn1 [II-42],pest or weed control at 4 pg,[1],100%
same,pest or weed control at 0.02 mg,[1],100%
same,mortality at 4 mg/m2,[5],80 to 100%
same,mortality at 20 mg/m2,[5],80 to 100%
same,mortality at 100 ppm,[2],100%
same,pest or weed control at 100 ppm,[4],100%
same,pest or weed control at 100 g/ha,[6],100%
same,"pest or weed control at 5 µg/cm2, 500 g/ha",[6],100%
same,mortality at 4 mg/m2,[8],80 to 100%
same,mortality at 20 mg/m2,[8],80 to 100%
C[C@H](NC(=O)c1cc(C(F)(F)F)cc(C2(C#N)CC2)c1)c1ncnn1-c1ccc(C#N)cn1 [II-47],pest or weed control at 4 pg,[1],100%
same,pest or weed control at 0.02 mg,[1],100%
same,mortality at 4 mg/m2,[5],80 to 100%
same,mortality at 20 mg/m2,[5],80 to 100%
same,mortality at 100 ppm,[2],100%
same,mortality at 100 g/ha,[3],100%
same,pest or weed control at 100 ppm,[4],100%
same,pest or weed control at 100 g/ha,[6],100%
same,"pest or weed control at 5 µg/cm2, 500 g/ha",[6],100%
C[C@H](NC(=O)c1cc(C(F)(F)F)cc(C2(C#N)CC2)c1)c1ncnn1-c1ccc(Cl)cn1 [II-48],pest or weed control at 4 pg,[1],100%
same,pest or weed control at 0.02 mg,[1],100%
same,mortality at 4 mg/m2,[5],80 to 100%
same,mortality at 20 mg/m2,[5],80 to 100%
same,mortality at 100 ppm,[2],100%
same,mortality at 100 g/ha,[3],100%
same,pest or weed control at 100 ppm,[4],100%
same,pest or weed control at 100 g/ha,[6],100%
same,"pest or weed control at 5 µg/cm2, 500 g/ha",[6],100%
Cc1nc([C@H](C)NC(=O)c2cc(C(F)(F)F)cc(C3(C#N)CC3)c2)n(-c2ccc(C#N)cn2)n1 [II-49],pest or weed control at 4 pg,[1],100%
same,pest or weed control at 0.02 mg,[1],100%
same,mortality at 20 mg/m2,[5],80 to 100%
same,mortality at 100 ppm,[2],100%
same,mortality at 100 g/ha,[3],100%
same,pest or weed control at 100 ppm,[4],100%
same,pest or weed control at 100 g/ha,[6],100%
same,"pest or weed control at 5 µg/cm2, 500 g/ha",[6],100%
same,mortality at 100 g/ha,[7],100%
Cc1nc([C@H](C)NC(=O)c2cc(C(F)(F)F)cc(S(C)(=O)=O)c2)n(-c2ccc(C#N)cn2)n1 [II-52],pest or weed control at 4 pg,[1],100%
same,mortality at 100 ppm,[2],100%
same,mortality at 100 g/ha,[3],100%
same,pest or weed control at 100 g/ha,[6],100%
same,"pest or weed control at 5 µg/cm2, 500 g/ha",[6],100%
same,mortality at 100 g/ha,[7],100%
C[C@H](NC(=O)c1cc(C#N)cc(C2CC2)c1)c1ncnn1-c1ncccn1 [II-54],mortality at 20 mg/m2,[5],80 to 100%
same,mortality at 100 ppm,[2],100%
same,mortality at 100 g/ha,[3],83%
same,pest or weed control at 100 g/ha,[6],100%
same,mortality at 100 g/ha,[7],100%
